From publication PMC2192565 (The Journal of Experimental Medicine, 1996)
Where no end group is shown, it is not given here.

biological target: HLA-DRB1*0401 (Homo sapiens, UniProt P01903+P01911, A100K/A169T/F76Y/I96L/K127E/L162R/M171V/N62H/P40V/Q125Y/R42H/S133A/S149N/S66Y/V115G/V209L/W38E); assay: biochemical; assay type: binding

Q: Which IC50 does the source give for `CC[C@H](C)[C@H](NC(=O)[C@H](CC(N)=O)NC(=O)[C@@H](N)CCC(N)=O)C(=O)N[C@@H](CC(C)C)C(=O)N[C@@H](CC(C)C)C(=O)N[C@@H](CO)C(=O)N[C@@H](CC(N)=O)C(=O)N[C@@H](C)C(=O)N1CCC[C@H]1C(=O)N[C@@H](CC(C)C)C(=O)NCC(=O)N1CCC[C@H]1C(=O)N[C@@H](CCC(N)=O)C(=O)N[C@@H](Cc1ccccc1)C(=O)N1CCC[C@H]1C(=O)O` [Ty 56-70] here?
A: 225 nM

Q: Which IC50 does the source give for DFSYLQDSDPDSFQD [Y449 F] here?
A: 1470 nM

Q: For DQSYLQDSDPDSFQD [Y449 Q], which IC50 is on record?
A: 918 nM

Q: With DYSFLQDSDPDSFQD [Y451 F] as the compound, how does the IC50 read?
A: 563 nM

Q: For QNFLLSNAPLGPQFP [I58 F], which IC50 is on record?
A: 55 nM

Q: QNIFLSNAPLGPQFP [L59 F] was tested. Which IC50 did it give?
A: 321 nM

Q: For QNILFSNAPLGPQFP [L60 F], which IC50 is on record?
A: 1100 nM

Q: With QNILLSNAPQGPQFP [L65 Q] as the compound, how does the IC50 read?
A: 2000 nM

Q: With QNILLSNAPVGPQFP [L65 V] as the compound, how does the IC50 read?
A: 1500 nM

Q: For QNILLSNAQLGPQFP [P64 Q], which IC50 is on record?
A: 290 nM

Q: For QNILLSNAVLGPQFP [P64 V], which IC50 is on record?
A: 158 nM

Q: Which IC50 does the source give for QNILLSNQPLGPQFP [A63 Q] here?
A: 7760 nM

Q: With QNILLSNVPLGPQFP [A63 V] as the compound, how does the IC50 read?
A: 12 nM

Q: Which IC50 does the source give for QNILQSNAPLGPQFP [L60 Q] here?
A: 750 nM

Q: How did the IC50 turn out when QNILVSNAPLGPQFP [L60 V] was run?
A: 612 nM

Q: How did the IC50 turn out when QNIQLSNAPLGPQFP [L59 Q] was run?
A: 750 nM

Q: With QNIVLSNAPLGPQFP [L59 V] as the compound, how does the IC50 read?
A: 95 nM

Q: QNQLLSNAPLGPQFP [I58 Q] was tested. Which IC50 did it give?
A: 6770 nM

Q: With QNVLLSNAPLGPQFP [I58 V] as the compound, how does the IC50 read?
A: 957 nM
